Read-outs that look alike come from different tables or passages of the source. *1 amine or outer side, *2 acyl side, *3 side chain or, on linkers, in order; H or OH if unused. Where a SMILES comes first, the peptide text is derived from it. Bridges are numbered along the chain shown (N, C = ends). Side-chain parts run from the residue outwards. [ ]: non-standard residue; d: D form. The star is where a group is joined. NH(1-deoxy-D-glucityl) = OC[C@@H](O)[C@@H](O)[C@H](O)[C@@H](O)CN*; DOTA = O=C(O)CN1CCN(CC(=O)O)CCN(CC(=O)*)CCN(CC(=O)O)CC1; Trp(5-Cl) = N[C@@H](Cc1c[nH]c2ccc(Cl)cc12)C(=O)O; Pyridine(2,6-diCH2) = c1cc(C[*:1])nc(C[*:2])c1; mXylylene = c1cc(C[*:1])cc(C[*:2])c1; Glutaryl = O=C(CCCC(=O)[*:2])[*:1]; Hyp = O=C(O)[C@@H]1C[C@@H](O)CN1; X1 = O=C(CN1CCC(N[*:1])CC1)[*:2]; Api = NC1(C(=O)O)CCNCC1 Some results are limits rather than exact numbers.

Data set [1] addresses T1, GIPR (CHO-K1-hGIPR cells) (Homo sapiens, UniProt P48546).
T1 construct: host or cells: CHO-K1
T1 sequence (P48546 22-466): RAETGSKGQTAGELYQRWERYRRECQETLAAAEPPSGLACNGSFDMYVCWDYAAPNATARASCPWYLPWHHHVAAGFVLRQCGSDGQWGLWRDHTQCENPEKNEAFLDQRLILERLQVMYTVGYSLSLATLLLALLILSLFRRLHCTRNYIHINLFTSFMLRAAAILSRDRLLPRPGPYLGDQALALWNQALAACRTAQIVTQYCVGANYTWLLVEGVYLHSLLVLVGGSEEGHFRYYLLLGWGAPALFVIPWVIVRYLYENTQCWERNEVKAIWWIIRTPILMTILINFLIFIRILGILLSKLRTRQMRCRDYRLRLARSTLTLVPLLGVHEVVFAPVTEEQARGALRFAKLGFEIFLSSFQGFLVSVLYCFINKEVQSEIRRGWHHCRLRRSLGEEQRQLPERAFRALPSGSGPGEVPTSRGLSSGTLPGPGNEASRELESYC
The experiment in a line: FACS binding assay. Put shortly:
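CHO-K1 cells stably expressing human GIPR were detached with Accutase, suspended at 500.000 cells per mL in PBS with 1% FCS, and washed ice-cold. Bound peptide was detected with 1 μg/mL APC-streptavidin for 30 min on ice.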
(In general: Flow cytometry measures light scatter and fluorescence of single cells or particles in a stream.)

The target in data set [2] is Recombinant soluble human NEP (Homo sapiens, UniProt P08473). Description: Proteolytic stability assay against NEP. The following applies: NEP 100 ng/mL, compound 10 μM, 37° C., % intact compound remaining.
Data set [3] is described as follows: Plasma stability assay, mouse plasma. In kind it is in vitro ADME. The following applies: 37° C., % intact compound remaining after 4 h or 24 h. The protocol: (§1) In order to determine the stability of selected compounds of the invention in human and mouse plasma, a plasma stability assay was carried out. Such plasma stability assay measures degradation of compounds of the present invention in blood plasma. This is an important characteristic of a compound as compounds, with the exception of pro-drugs, which rapidly degrade in plasma, generally show poor in vivo efficacy. […] The stability is sufficient for the diagnostic, therapeutic and theragnostic use of these compounds according to the present invention.
(§2) The plasma stability samples were prepared by spiking 50 μL plasma aliquots (all K2EDTA) with 1 μL of a 0.5 mM compound stock solution in DMS0. After vortexing the samples were incubated in a Thermomixer at 37° C. for 0, 4 and 24 hours. After incubation the samples were stored on ice until further treatment. All samples were prepared in duplicates.
(§3) A suitable internal standard was added to each sample (1 μL of a 0.5 mM stock solution in DMSO). Protein precipitation was performed by addition of 250 μL of acetonitrile containing 1% trifluoroacetic acid. After incubation at room temperature for 30 min the precipitate was separated by centrifugation and 150 μL of the supernatant was diluted with 150 μL of 1% aqueous formic acid.
(§4) Additionally, recovery was determined by spiking a pure plasma sample that only contained the internal standard after treatment with a certain amount of the compound.
(§5) Carry-over was evaluated by analysis of a blank sample (20% acetonitrile) after the highest calibration sample.

Data set [4] can be described thus: Plasma stability assay, human plasma. Type of data set: in vitro ADME. To be noted: 37° C., % intact compound remaining after 4 h or 24 h. On the procedure: as §1, §2, §3, §4, §5
Where [5] appears, read: competition with 20 nM GIP-057, 4° C., 1 hour, read-out: pIC50 Category (converted).
Where [6] appears, read: competition with 20 nM GIP-057, 4° C. for 1 hour, read-out: pIC50 Category (converted).

Sequence of Recombinant soluble human NEP (P08473 52-750 limits assumed): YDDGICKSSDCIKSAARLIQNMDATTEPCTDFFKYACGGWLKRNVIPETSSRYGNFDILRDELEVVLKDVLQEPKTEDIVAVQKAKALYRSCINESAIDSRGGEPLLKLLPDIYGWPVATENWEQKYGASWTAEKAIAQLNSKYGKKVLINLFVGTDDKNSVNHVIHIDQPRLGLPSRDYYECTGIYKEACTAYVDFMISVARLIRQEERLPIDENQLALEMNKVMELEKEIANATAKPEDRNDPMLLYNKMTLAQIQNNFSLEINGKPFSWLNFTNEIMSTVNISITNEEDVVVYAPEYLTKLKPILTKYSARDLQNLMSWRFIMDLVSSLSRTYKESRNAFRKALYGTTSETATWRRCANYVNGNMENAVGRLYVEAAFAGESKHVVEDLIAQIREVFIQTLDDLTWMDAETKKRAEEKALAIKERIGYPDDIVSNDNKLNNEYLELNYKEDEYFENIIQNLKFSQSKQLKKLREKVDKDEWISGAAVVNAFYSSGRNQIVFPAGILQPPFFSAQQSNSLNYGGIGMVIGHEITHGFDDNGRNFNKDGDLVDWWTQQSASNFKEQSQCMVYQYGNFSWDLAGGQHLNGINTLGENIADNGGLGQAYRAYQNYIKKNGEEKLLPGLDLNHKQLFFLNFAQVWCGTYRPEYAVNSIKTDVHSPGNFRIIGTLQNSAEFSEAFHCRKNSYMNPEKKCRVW

Consider `CC[C@H](C)[C@@H]1NC(=O)[C@H](CC(C)C)NC(=O)C2(CCN(C(=O)CCCC(=O)NC[C@H](O)[C@@H](O)[C@H](O)[C@H](O)CO)CC2)NC(=O)[C@@H](NC(=O)[C@@H](CC(C)C)NC(=O)[C@H](CCC(=O)O)NC(=O)[C@@H]2C[C@@H](O)CN2C(=O)[C@H](Cc2c[nH]c3ccc(Cl)cc23)NC(=O)[C@H](Cc2c[nH]c3ccccc23)NC(=O)[C@H](CC(=O)O)NC(=O)CN2CCC(NC(=O)[C@@H](CCC(=O)NC[C@H](O)[C@@H](O)[C@H](O)[C@H](O)CO)NC(=O)CN3CCN(CC(=O)O)CCN(CC(=O)O)CCN(CC(=O)O)CC3)CC2)CSCc2cccc(n2)CSC[C@@H](C(=O)NC2CCN(CC(=O)N[C@H](CCC(=O)NC[C@H](O)[C@@H](O)[C@H](O)[C@H](O)CO)C(N)=O)CC2)NC1=O` [GIP-003, DOTA-glu(AGLU)-APAc-Asp-Trp-5Clw-Hyp-Glu-leu-[Cys(2Lut)-Apc(AGLU-Glutar)-Leu-Ile-Cys]-APAc-glu(AGLU)-NH2] ({DOTA}-[dE](NH(1-deoxy-D-glucityl))[X1]DW[Trp(5-Cl)][Hyp]E[dL]C[Api]([Glutaryl-NH(1-deoxy-D-glucityl)])LIC[X1][dE](NH(1-deoxy-D-glucityl))-NH2; linker 9-13 via Pyridine(2,6-diCH2)), for which the IC50 in data set [1] (setting [5]) is less than 0.01 µM. Moreover, the NEP stability category result in data set [2] was “A (>80% intact after 24 hours)”.

In data set [1] (pIC50 Category, competition with 20 nM GIP-057, 4° C., 1 hour), `CC[C@H](C)[C@@H]1NC(=O)[C@H](CC(C)C)NC(=O)C2(CCN(C(=O)CN3CCN(CC(=O)O)CCN(CC(=O)O)CCN(CC(=O)O)CC3)CC2)NC(=O)[C@@H](NC(=O)[C@@H](CC(C)C)NC(=O)[C@H](CCC(=O)O)NC(=O)[C@@H]2C[C@@H](O)CN2C(=O)[C@H](Cc2c[nH]c3ccc(Cl)cc23)NC(=O)[C@H](Cc2c[nH]c3ccccc23)NC(=O)[C@H](CC(=O)O)NC(=O)CN2CCC(NC(=O)CCOCCOCCOCCOCCOCCOCCOCCOCCOCCOCCOCCOCCOCCOCCOCCOCCOCCOCCOCCOCCOCCOCCOCCOCCOCCOCCOCCOCCOCCOCCOCCOCCOCCOCCOCCOCCOC)CC2)CSCc2cccc(n2)CSC[C@@H](C(=O)N[C@H](CCC(=O)NC[C@H](O)[C@@H](O)[C@H](O)[C@H](O)CO)C(N)=O)NC1=O` [GIP-040, Me036PEG-APAc-Asp-Trp-5Clw-Hyp-Glu-leu-[Cys(2Lut)-Apc(DOTA)-Leu-Ile-Cys]-glu(AGLU)-NH2] came in with an IC50 of 0.01 to 0.0794 µM. Besides, the NEP stability category result in data set [2] was “A (>80% intact after 24 hours)”.

Consider `CC[C@H](C)[C@@H]1NC(=O)[C@H](CC(C)C)NC(=O)[C@H](C)NC(=O)[C@@H](NC(=O)[C@H](CC(C)C)NC(=O)[C@H](CCC(=O)O)NC(=O)[C@@H]2CCCN2C(=O)[C@H](Cc2c[nH]c3ccccc23)NC(=O)[C@H](Cc2c[nH]c3ccccc23)NC(=O)[C@H](CC(=O)O)NC(=O)[C@H](Cc2ccc(O)cc2)NC(C)=O)CSCc2cccc(c2)CSC[C@@H](C(N)=O)NC1=O` [GIP-240, Ac-Tyr-Asp-Trp-Trp-Pro-Glu-Leu-[Cys(3MeBn)-Ala-Leu-Ile-Cys]-NH2] (Ac-YDWWPELCALIC-NH2; linker 8-12 via mXylylene), for which the “Mouse plasma stability category” value in data set [3] is “B (>80% intact after 4 hours)”. The IC50 in data set [1] (setting [5]) was 0.01 to 0.0794 µM. Further, the “Human plasma stability category” value in data set [4] is reported as “B (>80% intact after 4 hours)”.

In the case of `CC[C@H](C)[C@@H]1NC(=O)[C@H](CC(C)C)NC(=O)[C@H](CCC(N)=O)NC(=O)[C@@H](NC(=O)[C@H](CC(C)C)NC(=O)[C@H](CCC(=O)O)NC(=O)[C@@H]2CCCN2C(=O)[C@H](Cc2c[nH]c3ccccc23)NC(=O)[C@H](Cc2c[nH]c3ccccc23)NC(=O)[C@H](CC(=O)O)NC(=O)[C@H](Cc2ccc(O)cc2)NC(=O)[C@@H](N)CCSC)CSCc2cccc(c2)CSC[C@@H](C(N)=O)NC1=O` [GIP-241] (H-MYDWWPELCQLIC-NH2; linker 9-13 via mXylylene), the “Mouse plasma stability category” value in data set [3] is “C (≥50% intact after 4 hours)”. The IC50 in data set [1] (setting [5]) is 0.01 to 0.0794 µM. Moreover, the “Human plasma stability category” value in data set [4] is reported as “B (>80% intact after 4 hours)”.

In the case of `CC[C@H](C)[C@@H]1NC(=O)[C@H](CC(C)C)NC(=O)[C@H]([C@@H](C)O)NC(=O)[C@@H](NC(=O)[C@H](CC(C)C)NC(=O)[C@H](CCC(=O)O)NC(=O)[C@@H]2CCCN2C(=O)[C@H](Cc2c[nH]c3ccccc23)NC(=O)[C@H](Cc2c[nH]c3ccccc23)NC(=O)[C@H](CC(=O)O)NC(=O)[C@H](Cc2ccc(O)cc2)NC(=O)[C@@H](N)CCSC)CSCc2cccc(c2)CSC[C@@H](C(N)=O)NC1=O` [GIP-242] (H-MYDWWPELCTLIC-NH2; linker 9-13 via mXylylene), in data set [3], the “Mouse plasma stability category” value is recorded as “C (≥50% intact after 4 hours)”. In addition, the IC50 in data set [1] (setting [5]) is 0.01 to 0.0794 µM. The “Human plasma stability category” value in data set [4] was “B (>80% intact after 4 hours)”.

`CC[C@H](C)[C@@H]1NC(=O)[C@H](CC(C)C)NC(=O)[C@H](C)NC(=O)[C@@H](NC(=O)[C@H](CC(C)C)NC(=O)[C@@H](CCC(=O)O)NC(=O)[C@@H]2CCCN2C(=O)[C@H](Cc2c[nH]c3ccccc23)NC(=O)[C@H](Cc2c[nH]c3ccccc23)NC(=O)[C@H](CC(=O)O)NC(=O)[C@H](Cc2ccc(O)cc2)NC(=O)[C@@H](N)CCSC)CSCc2cccc(c2)CSC[C@@H](C(N)=O)NC1=O` [GIP-245, H-Met-Tyr-Asp-Trp-Trp-Pro-glu-Leu-[Cys(3MeBn)-Ala-Leu-Ile-Cys]-NH2] (H-MYDWWP[dE]LCALIC-NH2; linker 9-13 via mXylylene): in data set [3], the “Mouse plasma stability category” value is on record as “D (<50% intact after 4 hours)”. In addition, in data set [1] (setting [6]), the IC50 was 0.01 to 0.0794 µM. Further, the “Human plasma stability category” value in data set [4] is “B (>80% intact after 4 hours)”.

As for `CC[C@H](C)[C@@H]1NC(=O)[C@H](CC(C)C)NC(=O)[C@H](C)NC(=O)[C@@H](NC(=O)[C@H](CC(C)C)NC(=O)[C@H](CCC(=O)O)NC(=O)[C@@H]2CCCN2C(=O)[C@H](Cc2c[nH]c3ccccc23)NC(=O)[C@H](Cc2c[nH]c3ccccc23)NC(=O)[C@H](CC(=O)O)NC(=O)[C@@H](Cc2ccc(O)cc2)NC(=O)[C@@H](N)CCSC)CSCc2cccc(c2)CSC[C@@H](C(N)=O)NC1=O` [GIP-246, H-Met-tyr-Asp-Trp-Trp-Pro-Glu-Leu-[Cys(3MeBn)-Ala-Leu-Ile-Cys]-NH2] (H-M[dY]DWWPELCALIC-NH2; linker 9-13 via mXylylene), the “Mouse plasma stability category” value in data set [3] is recorded as “B (>80% intact after 4 hours)”. In data set [1] (setting [6]), the IC50 is 0.01 to 0.0794 µM. For the same compound, in data set [4], the “Human plasma stability category” value was “B (>80% intact after 4 hours)”.

`CC[C@H](C)[C@@H]1NC(=O)[C@H](CC(C)C)NC(=O)[C@H](C)NC(=O)[C@@H](NC(=O)[C@@H](CC(C)C)NC(=O)[C@H](CCC(=O)O)NC(=O)[C@@H]2CCCN2C(=O)[C@H](Cc2c[nH]c3ccccc23)NC(=O)[C@H](Cc2c[nH]c3ccccc23)NC(=O)[C@H](CC(=O)O)NC(=O)[C@H](Cc2ccc(O)cc2)NC(=O)[C@@H](N)CCSC)CSCc2cccc(c2)CSC[C@@H](C(N)=O)NC1=O` [GIP-247, H-Met-Tyr-Asp-Trp-Trp-Pro-Glu-leu-[Cys(3MeBn)-Ala-Leu-Ile-Cys]-NH2] (H-MYDWWPE[dL]CALIC-NH2; linker 9-13 via mXylylene): the “Mouse plasma stability category” value in data set [3] was “D (<50% intact after 4 hours)”. In data set [1] (setting [6]), the IC50 is 0.01 to 0.0794 µM. Moreover, in data set [4], the “Human plasma stability category” value was “C (≥50% intact after 4 hours)”.

For the compound `CC[C@H](C)[C@@H]1NC(=O)[C@H](CC(C)C)NC(=O)[C@@H](C)NC(=O)[C@@H](NC(=O)[C@H](CC(C)C)NC(=O)[C@H](CCC(=O)O)NC(=O)[C@@H]2CCCN2C(=O)[C@H](Cc2c[nH]c3ccccc23)NC(=O)[C@H](Cc2c[nH]c3ccccc23)NC(=O)[C@H](CC(=O)O)NC(=O)[C@H](Cc2ccc(O)cc2)NC(=O)[C@@H](N)CCSC)CSCc2cccc(c2)CSC[C@@H](C(N)=O)NC1=O` [GIP-248] (H-MYDWWPELC[dA]LIC-NH2; linker 9-13 via mXylylene), the “Mouse plasma stability category” value in data set [3] was “D (<50% intact after 4 hours)”. Also, the IC50 in data set [1] (setting [6]) was 0.01 to 0.0794 µM. The “Human plasma stability category” value in data set [4] was “B (>80% intact after 4 hours)”.

The record behind these values is US20250296971A1, “GASTRIC INHIBITORY PEPTIDE RECEPTOR LIGANDS” (priority 2021, published 2025).
